In patent publication US7718669B2, “Triazolopyridine derivatives as inhibitors of lipases and phospholipases” (Sanofi-Aventis, priority 2005, dated 2010) one finds IC50 data, which are given here for one compound.

The experiment addresses T1, endothelial lipase (EL) (Homo sapiens, UniProt Q9Y5X9).
T1 construct: made in house; host or cells: recombinant CHO or HEK293 cell lines; concentrated conditioned medium
T1 sequence (Q9Y5X9 21-500): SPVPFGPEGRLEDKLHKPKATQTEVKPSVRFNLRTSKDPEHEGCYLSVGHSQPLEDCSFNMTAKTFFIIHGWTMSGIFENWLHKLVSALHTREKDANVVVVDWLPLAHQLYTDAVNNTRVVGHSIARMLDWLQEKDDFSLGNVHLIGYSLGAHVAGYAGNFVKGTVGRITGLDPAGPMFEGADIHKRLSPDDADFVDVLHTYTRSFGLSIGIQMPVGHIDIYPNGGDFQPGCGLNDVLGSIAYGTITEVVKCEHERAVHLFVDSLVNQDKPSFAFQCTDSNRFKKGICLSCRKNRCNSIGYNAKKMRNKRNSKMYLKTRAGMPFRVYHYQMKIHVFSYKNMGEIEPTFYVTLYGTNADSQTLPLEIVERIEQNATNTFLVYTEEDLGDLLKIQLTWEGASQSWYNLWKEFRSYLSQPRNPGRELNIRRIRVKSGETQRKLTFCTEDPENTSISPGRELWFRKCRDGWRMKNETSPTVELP
The experiment is described as follows: EL inhibition assay. Type of experiment: biochemical. The following applies: EL from conditioned medium of recombinant cell lines (CHO, HEK293); Bodipy phospholipid substrate; 37° C. for 60 minutes. The source says:
EL is released as secretory protein in high concentration into cell culture medium (conditioned medium) by recombinant cell lines (CHO, HEK293). This is employed as enzyme solution after concentration.
The phospholipase-specific substrate 1,2-bis(4,4-difluoro-5,7-dimethyl-4-bora-3a,4a-diaza-s-indacene-3-undecanoyl)-sn-glycero-3-phosphocholine, (manufacturer Molecular Probes) is used to characterize the enzymatic activity of endothelial lipase and the effect of inhibitors. Hydrolysis of the A1 ester linkage of this phospholipid by the enzyme liberates the fluorescent dye Bodipy which can be detected after separation by thin-layer chromatography on an HPTLC plate (silica gel 60, Merck) or directly in the reaction vessel by measuring the fluorescence. The substrate solution is prepared by taking up 100 μg of 1,2-bis(4,4-difluoro-5,7-dimethyl-4-bora-3a,4a-diaza-s-indacene-3-undecanoyl)-sn-glycero-3-phospho-choline (manufacturer Molecular Probes), 2.4 mg of tripalmitin (Sigma) and 7.9 mg of DOP-choline (1,2-dioleoyl-sn-glycero-3-phosphocholine) in 393 μl of chloroform and then transferring 157 μl into a fresh reaction vessel. After evaporation of the solvent, the lipid mixture is dissolved in 4 ml of 200 mM TRIS-HCl, 150 mM sodium chloride, pH=7.4, by sonication twice. The subsequent enzymic reaction takes place at 37° C. for 60 minutes. For this purpose, 45 μl of the substrate solution are incubated with 1 μl of inhibitor of appropriate concentration (dissolved in DMSO, pure DMSO solution is used as control) and 5 μl of enzyme solution (conditioned medium). Then 3 μl of the assay mixture are loaded onto an HPTLC plate (silica gel 60, Merck), and the liberated fluorescent dye is separated for detection with an eluent (diethyl ether:petroleum benzene:acetic acid [78:22:1]). After evaporation of the eluent, the plate is read in a fluorescence scanner. An increased release of the fluorescent dye in the uninhibited reaction is to be observed as a measure of the enzymic activity.
The enzymatic activity is reduced as a function of the inhibitor concentration used, and the inhibitor concentration at which a half-maximum enzymic activity is observed is called IC50.

Molecules are shown by their SMILES.

Take `Cc1ccccc1CNC(=O)n1nnc2cc(Cl)cnc21` [Example 68]: the IC50 was found to be 1.24 µM.

What is called IC50 is the concentration that inhibits the measured activity by half.
